# Results from patent publication US8435980B2 (AbbVie Inc., priority 2009, dated 2013).
# Target: T1, Cdc7 (BEV coexpressed huCDC7/DBF4) (Homo sapiens, UniProt O00311)
# T1 construct: made in house; host or cells: BEV (baculovirus expression vector) co-expression; insect cells are implied but no cell line is named
# Assay: Cdc7 enzyme inhibition assay ([33P]ATP, biotinylated peptide substrate, FlashPlate)
# Type: biochemical
# Conditions: Table 3; enzyme inhibition data (Ki)
# Protocol: Cdc7 (BEV coexpressed huCDC7/DBF4) is prepared internally. Cdc7 assays are conducted as follows with final concentrations as listed. […] Reactions are quenched after 1 hr by the addition of 90 μL stop buffer (50 mM EDTA, 2M NaCl). […] (Ki) for exemplary compounds.
# T1 sequence (O00311 whole entry): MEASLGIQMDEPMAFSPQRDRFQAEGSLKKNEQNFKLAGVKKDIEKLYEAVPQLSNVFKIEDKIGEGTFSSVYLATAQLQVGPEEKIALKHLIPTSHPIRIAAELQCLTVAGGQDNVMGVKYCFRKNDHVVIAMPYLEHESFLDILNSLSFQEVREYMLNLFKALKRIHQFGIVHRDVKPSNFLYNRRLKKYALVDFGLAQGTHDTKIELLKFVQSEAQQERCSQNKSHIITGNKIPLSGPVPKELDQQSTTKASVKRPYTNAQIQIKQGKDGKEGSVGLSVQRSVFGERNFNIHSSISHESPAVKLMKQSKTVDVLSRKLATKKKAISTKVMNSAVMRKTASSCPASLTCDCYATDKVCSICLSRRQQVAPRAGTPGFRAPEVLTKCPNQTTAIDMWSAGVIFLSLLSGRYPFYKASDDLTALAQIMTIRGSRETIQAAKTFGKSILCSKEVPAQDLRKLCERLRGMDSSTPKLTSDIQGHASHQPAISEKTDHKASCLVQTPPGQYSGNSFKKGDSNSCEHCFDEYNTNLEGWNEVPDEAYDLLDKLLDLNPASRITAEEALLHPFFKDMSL
# T1 sequence (Q9UBU7 whole entry partner): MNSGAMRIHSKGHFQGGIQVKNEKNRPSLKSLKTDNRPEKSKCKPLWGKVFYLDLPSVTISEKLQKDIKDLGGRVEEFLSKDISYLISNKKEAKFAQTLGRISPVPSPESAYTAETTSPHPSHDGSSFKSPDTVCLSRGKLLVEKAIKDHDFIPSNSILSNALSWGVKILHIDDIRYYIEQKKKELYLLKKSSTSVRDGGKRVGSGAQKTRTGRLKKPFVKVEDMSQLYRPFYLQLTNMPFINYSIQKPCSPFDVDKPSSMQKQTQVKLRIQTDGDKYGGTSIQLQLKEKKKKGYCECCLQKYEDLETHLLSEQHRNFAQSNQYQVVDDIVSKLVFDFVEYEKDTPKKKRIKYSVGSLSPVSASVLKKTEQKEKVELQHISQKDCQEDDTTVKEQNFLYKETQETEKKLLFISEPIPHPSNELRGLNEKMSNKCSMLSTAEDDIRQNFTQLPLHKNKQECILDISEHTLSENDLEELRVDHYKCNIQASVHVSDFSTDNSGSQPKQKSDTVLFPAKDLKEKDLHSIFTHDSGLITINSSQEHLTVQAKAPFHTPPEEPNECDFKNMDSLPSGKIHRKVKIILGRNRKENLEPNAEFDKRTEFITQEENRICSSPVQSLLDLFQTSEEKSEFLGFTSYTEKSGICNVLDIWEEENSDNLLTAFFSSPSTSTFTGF
row,Structure (SMILES),Ki [nM]
1,"O=C(N[C@H]1CC[C@H](Nc2cc(-c3c[nH]c4ncccc34)cc(Cl)n2)CC1)C1CN(Cc2ccc(F)cc2)C1 [Example 166, N-(trans-4-{[6-chloro-4-(1H-pyrrolo[2,3-b]pyridin-3-yl)pyridin-2-yl]amino}cyclohexyl)-1-(4-fluorobenzyl)azetidine-3-carboxamide]",< 10
2,"CS(=O)(=O)N1CC(C(=O)N[C@H]2CC[C@H](Nc3cc(-c4c[nH]c5ncccc45)cc(Cl)n3)CC2)C1 [Example 167, N-(trans-4-{[6-chloro-4-(1H-pyrrolo[2,3-b]pyridin-3-yl)pyridin-2-yl]amino}cyclohexyl)-1-(methylsulfonyl)azetidine-3-carboxamide]",< 10
3,"O=C(NCCS(=O)(=O)NC1CCCC(Nc2cc(-c3c[nH]c4ncccc34)cc(Cl)n2)C1)c1cnccn1 (stereo not shown) [Example 172, N-{2-[(3-{[6-chloro-4-(1H-pyrrolo[2,3-b]pyridin-3-yl)pyridin-2-yl]amino}cyclohexyl)sulfamoyl]ethyl}pyrazine-2-carboxamide]",< 10
4,"CC(=O)NC1CCC(CC2CCC(Nc3cc(-c4c[nH]c5ncccc45)cc(Cl)n3)CC2)CC1 (stereo not shown) [Example 174, N-{4-[(4-{[6-chloro-4-(1H-pyrrolo[2,3-b]pyridin-3-yl)pyridin-2-yl]amino}cyclohexyl)methyl]cyclohexyl}acetamide]",< 10
5,"O=C(C1CC1)N1CCC(NC2CCC(Nc3cc(-c4c[nH]c5ncccc45)cc(Cl)n3)CC2)CC1 (stereo not shown) [Example 175, {4-[(4-{[6-chloro-4-(1H-pyrrolo[2,3-b]pyridin-3-yl)pyridin-2-yl]amino}cyclohexyl)amino]piperidin-1-yl}(cyclopropyl)methanone]",< 10
6,"Clc1cc(-c2c[nH]c3ncccc23)cc(NC2CCC(C3CCN(C4CCC4)CC3)CC2)n1 (stereo not shown) [Example 182, 6-chloro-N-[4-(1-cyclobutylpiperidin-4-yl)cyclohexyl]-4-(1H-pyrrolo[2,3-b]pyridin-3-yl)pyridin-2-amine]",< 10
7,"CS(=O)(=O)N1CCC(C2CCC(Nc3cc(-c4c[nH]c5ncccc45)cc(Cl)n3)CC2)CC1 (stereo not shown) [Example 183, 6-chloro-N-{4-[1-(methylsulfonyl)piperidin-4-yl]cyclohexyl}-4-(1H-pyrrolo[2,3-b]pyridin-3-yl)pyridin-2-amine]",< 10
8,"CN1CCC(C2CCC(N(C)c3cc(-c4c[nH]c5ncccc45)cc(Cl)n3)CC2)CC1 (stereo not shown) [Example 185, 6-chloro-N-methyl-N-[4-(1-methylpiperidin-4-yl)cyclohexyl]-4-(1H-pyrrolo[2,3-b]pyridin-3-yl)pyridin-2-amine]",< 10
9,"O=C(C1CC1)N1CCCC(C2CCC(Nc3cc(-c4c[nH]c5ncccc45)cc(Cl)n3)CC2)C1 (stereo not shown) [Example 188, [3-(4-{[6-chloro-4-(1H-pyrrolo[2,3-b]pyridin-3-yl)pyridin-2-yl]amino}cyclohexyl)piperidin-1-yl](cyclopropyl)methanone]",< 10
10,"O=C(NCCS(=O)(=O)N[C@H]1CC[C@H](Nc2cc(-c3c[nH]c4ncccc34)cc(Cl)n2)CC1)c1ccccc1 [Example 193, N-{2-[(trans-4-{[6-chloro-4-(1H-pyrrolo[2,3-b]pyridin-3-yl)pyridin-2-yl]amino}cyclohexyl)sulfamoyl]ethyl}benzamide]",< 10
11,"CS(=O)(=O)NCCS(=O)(=O)N[C@H]1CC[C@H](Nc2cc(-c3c[nH]c4ncccc34)cc(Cl)n2)CC1 [Example 194, N-(trans-4-{[6-chloro-4-(1H-pyrrolo[2,3-b]pyridin-3-yl)pyridin-2-yl]amino}cyclohexyl)-2-[(methylsulfonyl)amino]ethanesulfonamide]",< 10
12,"Fc1ccc(CN2CCC(C3CCC(Nc4cc(-c5c[nH]c6ncccc56)cc(Cl)n4)CC3)C2)cc1 (stereo not shown) [Example 198, 6-chloro-N-{4-[1-(4-fluorobenzyl)pyrrolidin-3-yl]cyclohexyl}-4-(1H-pyrrolo[2,3-b]pyridin-3-yl)pyridin-2-amine]",< 10
13,"Clc1cc(-c2c[nH]c3ncccc23)cc(NC2CCN(C3CCC(NC4CCC4)CC3)CC2)n1 (stereo not shown) [Example 200, 6-chloro-N-{1-[4-(cyclobutylamino)cyclohexyl]piperidin-4-yl}-4-(1H-pyrrolo[2,3-b]pyridin-3-yl)pyridin-2-amine]",< 10
14,"O=C(N[C@H]1CC[C@H](Nc2cc(-c3c[nH]c4ncccc34)cc(Cl)n2)CC1)c1ccc(F)cc1F [Example 202, N-(trans-4-{[6-chloro-4-(1H-pyrrolo[2,3-b]pyridin-3-yl)pyridin-2-yl]amino}cyclohexyl)-2,4-difluorobenzamide]",< 10

# The next lines start with the values.
row,Ki [nM],Structure (SMILES)
1,< 10,"Clc1cc(-c2c[nH]c3nccc(Cl)c23)cc(NC2CCCCC2)n1 [Example 168, 6-chloro-4-(4-chloro-1H-pyrrolo[2,3-b]pyridin-3-yl)-N-cyclohexylpyridin-2-amine]"
2,< 10,"O=S(=O)(CCNC1CCC1)NC1CCCC(Nc2cc(-c3c[nH]c4ncccc34)cc(Cl)n2)C1 (stereo not shown) [Example 170, N-(3-{[6-chloro-4-(1H-pyrrolo[2,3-b]pyridin-3-yl)pyridin-2-yl]amino}cyclohexyl)-2-(cyclobutylamino)ethanesulfonamide]"
3,< 10,"Clc1cc(-c2c[nH]c3ncc(-c4cn[nH]c4)cc23)cc(NC2CCCCC2)n1 [Example 171, 6-chloro-N-cyclohexyl-4-[5-(1H-pyrazol-4-yl)-1H-pyrrolo[2,3-b]pyridin-3-yl]pyridin-2-amine]"
4,< 10,"Clc1cc(-c2c[nH]c3ncc(Br)cc23)cc(NC2CCCCC2)n1 [Example 173, 4-(5-bromo-1H-pyrrolo[2,3-b]pyridin-3-yl)-6-chloro-N-cyclohexylpyridin-2-amine]"
5,< 10,"Cn1cc(-c2cnc3[nH]cc(-c4cc(Cl)nc(NC5CCCCC5)c4)c3c2)cn1 [Example 176, 6-chloro-N-cyclohexyl-4-[5-(1-methyl-1H-pyrazol-4-yl)-1H-pyrrolo[2,3-b]pyridin-3-yl]pyridin-2-amine]"
6,< 10,"COc1cnc2[nH]cc(-c3cc(Cl)nc(NC4CCCCC4)c3)c2c1 [Example 178, 6-chloro-N-cyclohexyl-4-(5-methoxy-1H-pyrrolo[2,3-b]pyridin-3-yl)pyridin-2-amine]"
7,< 10,"NCCS(=O)(=O)N[C@H]1CC[C@H](Nc2cc(-c3c[nH]c4ncccc34)cc(Cl)n2)CC1 [Example 179, 2-amino-N-(trans-4-{[6-chloro-4-(1H-pyrrolo[2,3-b]pyridin-3-yl)pyridin-2-yl]amino}cyclohexyl)ethanesulfonamide]"
8,< 10,"Oc1cnc2[nH]cc(-c3cc(Cl)nc(NC4CCCCC4)c3)c2c1 [Example 180, 3-[2-chloro-6-(cyclohexylamino)pyridin-4-yl]-1H-pyrrolo[2,3-b]pyridin-5-ol]"
9,< 10,"Clc1cc(-c2c[nH]c3ncccc23)cc(NC2CCC(C3CCCNC3)CC2)n1 (stereo not shown) [Example 181, 6-chloro-N-[4-(piperidin-3-yl)cyclohexyl]-4-(1H-pyrrolo[2,3-b]pyridin-3-yl)pyridin-2-amine]"
10,< 10,"CN1CCC(C2CCC(Nc3cc(-c4c[nH]c5ncccc45)cc(Cl)n3)CC2)CC1 (stereo not shown) [Example 184, 6-chloro-N-[4-(1-methylpiperidin-4-yl)cyclohexyl]-4-(1H-pyrrolo[2,3-b]pyridin-3-yl)pyridin-2-amine]"
11,< 10,"CS(=O)(=O)N1CCCC(C2CCC(Nc3cc(-c4c[nH]c5ncccc45)cc(Cl)n3)CC2)C1 (stereo not shown) [Example 186, 6-chloro-N-{4-[1-(methylsulfonyl)piperidin-3-yl]cyclohexyl}-4-(1H-pyrrolo[2,3-b]pyridin-3-yl)pyridin-2-amine]"
12,< 10,"Clc1cc(-c2c[nH]c3ncc(-c4cnn(CCN5CCOCC5)c4)cc23)cc(NC2CCCCC2)n1 [Example 187, 6-chloro-N-cyclohexyl-4-(5-{1-[2-(morpholin-4-yl)ethyl]-1H-pyrazol-4-yl}-1H-pyrrolo[2,3-b]pyridin-3-yl)pyridin-2-amine]"
13,< 10,"Clc1cc(-c2c[nH]c3ncccc23)cc(NC2CCC(C3CCCN(C4CCC4)C3)CC2)n1 (stereo not shown) [Example 189, 6-chloro-N-[4-(1-cyclobutylpiperidin-3-yl)cyclohexyl]-4-(1H-pyrrolo[2,3-b]pyridin-3-yl)pyridin-2-amine]"
14,< 10,"Clc1cc(-c2c[nH]c3ncccc23)cc(NC2CCC(C3CCNC3)CC2)n1 (stereo not shown) [Example 190, 6-chloro-N-[4-(pyrrolidin-3-yl)cyclohexyl]-4-(1H-pyrrolo[2,3-b]pyridin-3-yl)pyridin-2-amine]"
15,< 10,"CN1CCC(N2CCC(Nc3cc(-c4c[nH]c5ncccc45)cc(Cl)n3)CC2)CC1 [Example 191, N-[6-chloro-4-(1H-pyrrolo[2,3-b]pyridin-3-yl)pyridin-2-yl]-1′-methyl-1,4′-bipiperidin-4-amine]"
16,< 10,"Clc1cc(-c2c[nH]c3ncc(OCCN4CCOCC4)cc23)cc(NC2CCCCC2)n1 [Example 195, 6-chloro-N-cyclohexyl-4-{5-[2-(morpholin-4-yl)ethoxy]-1H-pyrrolo[2,3-b]pyridin-3-yl}pyridin-2-amine]"
17,< 10,"Cn1cncc1COc1cnc2[nH]cc(-c3cc(Cl)nc(NC4CCCCC4)c3)c2c1 [Example 196, 6-chloro-N-cyclohexyl-4-{5-[(1-methyl-1H-imidazol-5-yl)methoxy]-1H-pyrrolo[2,3-b]pyridin-3-yl}pyridin-2-amine]"
18,< 10,"CN1CCC(C2CCC(Nc3cc(-c4c[nH]c5ncccc45)cc(Cl)n3)CC2)C1 (stereo not shown) [Example 197, 6-chloro-N-[4-(1-methylpyrrolidin-3-yl)cyclohexyl]-4-(1H-pyrrolo[2,3-b]pyridin-3-yl)pyridin-2-amine]"
19,< 10,"CS(=O)(=O)N1CCC(C2CCC(Nc3cc(-c4c[nH]c5ncccc45)cc(Cl)n3)CC2)C1 (stereo not shown) [Example 199, 6-chloro-N-{4-[1-(methylsulfonyl)pyrrolidin-3-yl]cyclohexyl}-4-(1H-pyrrolo[2,3-b]pyridin-3-yl)pyridin-2-amine]"
20,10 to 100,"N#Cc1cnc2[nH]cc(-c3cc(Cl)nc(NC4CCCCC4)c3)c2c1 [Example 201, 3-[2-chloro-6-(cyclohexylamino)pyridin-4-yl]-1-1H-pyrrolo[2,3-b]pyridine-5-carbonitrile]"
